ChEMBL document CHEMBL3507680, “University of Dundee, Gates Library screen for HepG2 cell viability”

Assay: Human HepG2 cell viability assay in 384 well format
Assay type: toxicity, cell-based
Set-up: dose 125 nL, time 70.5 hour; cytotoxicity at 70.5 h: concentration not given beside the values
Settings: HepG2 cells, read-out: Inhibition

Row | Structure (SMILES) | cytotoxicity at 70.5 h [%]
1 | CCN(Cc1cnn(C)c1)S(=O)(=O)c1ccc(NC(C)=O)cc1 | 9.84
2 | O=C(CN1CCCc2cc(F)cc(F)c21)Nc1ccc(Br)cn1 | -3.51
3 | COc1cccc2c1N(CC(=O)Nc1ccc(Br)cn1)CCC2 | -3.62
4 | Cc1ccc(Cl)cc1NS(=O)(=O)c1cc(C(N)=O)n(C)c1 | -0.833
5 | O=C(NCCNc1ncccn1)c1ccc(Cl)s1 | -5.84
6 | CN(Cc1ccc(Cl)s1)C(=O)NCCN1CCCCCC1=O | -3.32
7 | COC(=O)C(C)(C)NC(=O)c1cnc(C(C)(C)C)s1 | -1.58
8 | CC(C)(NC(=O)c1cnc(C(C)(C)C)s1)C(N)=O | 28.5
9 | CC(C)c1ccc(O)c(C(=O)NCc2nncn2C)c1 | -6.12
10 | O=C(NCCN1CCCCCC1=O)NCc1ccc(Cl)s1 | 2.1
11 | CC(Oc1ccc(F)cc1)C(=O)N(CC(N)=O)C1CCCC1 (configuration not stated) | 0.347
12 | COc1ccc(CNC(=O)CCn2cc(C)cn2)cc1C | 26.7
13 | CC(Oc1cccc(F)c1)C(=O)N(CC(N)=O)C1CCCC1 (configuration not stated) | 0.47
14 | CN(CC(=O)NCC(O)c1cccc(F)c1)C(=O)OC(C)(C)C (configuration not stated) | -3.05
15 | CC(C)c1ccc(O)c(C(=O)NCc2cc[nH]n2)c1 | 20.8
16 | Cc1ccc(CC(NC(=O)CCS(C)(=O)=O)c2ccccn2)cc1 (configuration not stated) | 0.0206
17 | CNC(=O)c1cc(NC(=O)NC(C)CCc2cccn2C)ccc1F (configuration not stated) | 22.7
18 | CNC(=O)c1cccc(NC(=O)NC(C)CCc2cccn2C)c1C (configuration not stated) | 5.28
19 | Cn1cc(S(=O)(=O)Nc2ccc(Cl)cn2)cc1C(N)=O | -3.76
20 | Cc1ccnc(NS(=O)(=O)c2cc(C(N)=O)n(C)c2)c1 | 0.984
21 | O=C1NCCCCC1NC(=O)C1(c2ccc3c(c2)OCCO3)CCCC1 (configuration not stated) | 27.7
22 | COc1ccc(CCNC(=O)C2CC2)c(Cl)c1 | -1.42
23 | CC1(NC(=O)CC2CCc3ccccc32)CCOCC1 (configuration not stated) | -2.46
24 | COCCOc1ccc(S(=O)(=O)Nc2cccc(O)c2F)cc1C | -7.45
25 | CCN(Cc1cnn(C)c1)S(=O)(=O)c1ccc(NC(=O)C(C)(C)C)cc1 | 2.92
26 | CC1CN(C)CCN1C(=O)c1cccn1Cc1cccnc1 (configuration not stated) | -7.82

Row | Structure (SMILES) | cytotoxicity at 70.5 h [%]
27 | COc1ccc(C(=O)NC2CCN(c3ncccn3)CC2)cc1F | -8.33
28 | O=C(Cn1cccnc1=O)NCc1cccnc1OCC(F)(F)F | 2.5
29 | Cc1cccc(S(=O)(=O)NC2CCN(CC(F)(F)F)C2)c1 (configuration not stated) | -15.5
30 | Cc1cnn(C2CCCN(C(=O)c3cc(-c4cccs4)n[nH]3)C2)c1 (configuration not stated) | -4.05
31 | C=C(C)CN(CC)C(=O)Nc1ccccc1CN(C)C(C)=O | -12.6
32 | COCCN(CC(F)F)c1cc(C(F)(F)F)nc2ncnn12 | -7.29
33 | CCOc1ccc(C(=O)NC2CCN(c3ncccn3)CC2)cc1C | -0.65
34 | CCN(CC)CCN(CC(C)C)c1cc(C(F)(F)F)nc2ncnn12 | 0.687
35 | CC(NC(=O)c1ccc(C(N)=O)cc1)c1cccc(N2CCOC2=O)c1 (configuration not stated) | 0.0239
36 | c1ccc2oc(N3CCC(c4nncn4C4CC4)CC3)nc2c1 | 29.8
37 | CC(O)CN(C)S(=O)(=O)c1ccc(C#N)cc1F (configuration not stated) | -2.23
38 | COc1ccc(S(=O)(=O)Nc2cccnc2-n2cncn2)cc1C | 0.714
39 | COc1cccc(NC(=O)CN(C(C)C)C2CC2)c1 | -2.69
40 | CC1CN(Cc2cccc(CN)c2)CCO1 (configuration not stated) | -9.2
41 | CC(C(=O)NCc1ccc(F)cc1)N(C)CCN1CCOCC1 (configuration not stated) | 24.4
42 | Cc1nc(C)c(C(=O)N2CCCc3c(F)ccc(F)c32)o1 | -9.33
43 | Cc1c(F)cccc1S(=O)(=O)N(C)CC(C)O (configuration not stated) | -11.6
44 | CN(CC(=O)N1CCCC1)C(=O)c1cccn1CCc1ccccc1 | -7.1
45 | COc1ccc(F)cc1CN1CCN(Cc2nccn2C)C(C)C1 (configuration not stated) | 9.37
46 | COc1cc(CNC2CCCN(c3ncccn3)C2)cc2c1OCO2 (configuration not stated) | -5.86
47 | COc1ccccc1-c1csc(-c2cccc(C(=O)O)c2)n1 | -4.2
48 | CN1CCOC(CNC(=O)CCc2cc(F)ccc2F)C1 (configuration not stated) | -4.57
49 | COc1ccc(-c2csc(-c3cccc(C(=O)O)c3)n2)cc1OC | -9.98
50 | CCC(CC)(CNC(=O)OC(C)(C)C)NC(=O)C1CCCO1 (configuration not stated) | -3.25
51 | CCOc1ccc(NC2CCN(CC(F)(F)F)C2=O)cc1C (configuration not stated) | -5.71
52 | CSc1ccc(NCC(=O)NCC(=O)N2CCCC2)cc1F | -2.3

Row | Structure (SMILES) | cytotoxicity at 70.5 h [%]
53 | CSc1ccc(NCC(=O)NC(=O)NCC(F)(F)F)cc1F | 19.5
54 | Cc1cnn(CCNCC(=O)Nc2ccc(Br)cn2)c1 | -4.64
55 | O=C(Cc1cccs1)N1CCOCC1c1ccccc1 (configuration not stated) | 15.2
56 | CN(Cc1ccsc1)C(=O)c1cc(S(=O)(=O)N(C)C)ccc1Cl | -7.18
57 | CS(=O)(=O)N1CCCCCC1C1CCN(Cc2nc(C3CC3)no2)CC1 (configuration not stated) | 5.88
58 | CCOCC1CCCN(C(=O)NCc2cn3c(C)cccc3n2)C1 (configuration not stated) | 9.89
59 | Cc1cnc(CN(Cc2ccc(Cl)s2)C2CCN(C)C2)o1 (configuration not stated) | -9.93
60 | CC(=O)N(Cc1ncc(C)o1)C1CCN(Cc2cccnc2)C1 (configuration not stated) | 2.44
61 | Cc1ccc(CNCc2nnc3n2CC(C(F)(F)F)CC3)o1 (configuration not stated) | 2.88
62 | Cc1c(C(=O)N2CCCSCC2)nnn1-c1ccccc1Cl | -8.81
63 | CCNC(=O)NC(=O)C(C)N(C)CCOc1ccccc1C (configuration not stated) | -12.4
64 | Cc1cc(C)c(CNC(=O)C(C)Oc2ccccc2C#N)c(=O)[nH]1 (configuration not stated) | -13.5
65 | Cc1cc(C)c(CNC(=O)C(C)Oc2cccc(C#N)c2)c(=O)[nH]1 (configuration not stated) | -11.6
66 | Cc1nc(CCNC(=O)NCC(c2ccco2)N(C)C)cs1 (configuration not stated) | -14.9
67 | Cc1cc(C)c(CNC(=O)C(C)Oc2ccccc2F)c(=O)[nH]1 (configuration not stated) | 2.57
68 | COc1ccc2oc(C(C)NC(=O)NCc3noc(C)n3)c(C)c2c1 (configuration not stated) | -12
69 | Cc1cc(C)n(-c2cncc(NCCNC(=O)C3CCCC3)n2)n1 | -9.3
70 | CC(C)n1cc(S(=O)(=O)N2CCCC(N3CCCCC3)C2)cn1 (configuration not stated) | -16.1
71 | CN(Cc1nccn1C)S(=O)(=O)N1CCCC1c1ccco1 (configuration not stated) | -11.4
72 | Cc1ccc(C2CCCN2S(=O)(=O)N(C)Cc2nccn2C)o1 (configuration not stated) | 5.77
73 | O=C(NCc1ccc2c(c1)OCO2)c1ccc(N2CCCCCC2)nc1 | 2.76
74 | O=C(Nc1nc(-c2ccccc2)ns1)N1CCC(CO)CC1 | -12.6
75 | Cc1cc(C)n(-c2cncc(NCCNC(=O)C(C)(C)C)n2)n1 | -9.22
76 | COc1ccc(CNCc2nnc3n2CC(C(F)(F)F)CC3)cc1 (configuration not stated) | 26.4
77 | CCc1nnc(SC2CCCN(c3cnn(C)c3)C2=O)n1C (configuration not stated) | -12.6
78 | CCc1nnc2n1CCN(CC(=O)N(CC)C1=CCCCC1)C2 | 14.1

Row | Structure (SMILES) | cytotoxicity at 70.5 h [%]
79 | Cc1ncsc1CN(C)Cc1cc2c(cc1OC(F)F)OCO2 | 5.16
80 | Cc1nn(C)c(N(C)C)c1CNCc1ccc(Cn2cccn2)cc1 | -4.86
81 | CCn1c(C)nnc1CN(C)C1CCN(Cc2ccccn2)C1 (configuration not stated) | -2.44
82 | O=C(NCC1CC1)c1cc(Cl)c2c(c1)OCCCO2 | 8.95
83 | COc1ccc(C)cc1CNC(=O)C1=NN(c2ccccc2)C(=O)CN1 | -5.19
84 | COc1ncccc1CNC(=O)C1=NN(c2ccccc2)C(=O)CN1 | 0.82
85 | O=C(NCc1ccccn1)NCC(c1ccco1)N1CCCCC1 (configuration not stated) | -5.04
86 | Cc1nc(CN2CCN(C(=O)CC(C)(C)c3ccccc3)CC2)no1 | -5.37
87 | O=C(Cn1cc(I)cn1)N1CCOCC1 | -3.24
88 | C[S+]([O-])c1nncn1CC(=O)c1ccc2c(c1)CCC2 (configuration not stated) | 8.46
89 | COc1ccccc1NC(=O)NC(C)c1nc[nH]n1 (configuration not stated) | 0.321
90 | CC(NC(=O)Nc1ccc(F)c(F)c1)c1nc[nH]n1 (configuration not stated) | -2.38
91 | CS(=O)(=O)NC(=O)c1cc(Cl)c2c(c1)OCCCO2 | 0.437
92 | CCN1CC(C(=O)NC(C)(C)C)CC1=O (configuration not stated) | -6.02
93 | CCC(C)(NCc1cccc(NC(C)=O)c1)c1nc(C)cs1 (configuration not stated) | -0.722
94 | Cc1nn(C)c(N(C)C)c1CNCc1ccc(N(C)C)nc1 | -2.4
95 | Cc1cc(C(=O)Cn2cnnc2[S+](C)[O-])cc(C)c1F (configuration not stated) | 33.6
96 | Cc1ccc(CNCc2c(C)nn(C)c2N(C)C)cn1 | -3.06
97 | CCC(C)(NCC(=O)NC(C)C)c1nc(C)cs1 (configuration not stated) | -3.79
98 | CC(C)CCN1CCN(Cc2nc(C(C)C)no2)CC1 | -0.333
99 | CCCc1noc(CN2CCN(CCC(C)C)CC2)n1 | -2.49
100 | CCc1cc(CNC(=O)NCC(c2ccco2)N2CCCC2)[nH]n1 (configuration not stated) | -3.15
101 | Cc1nc(CN2CCN(C(=O)CCc3cccnc3)CC2)no1 | 16.4
102 | Cc1cc(C(N)=O)ccc1NC(=O)c1nc(N2CCCCC2)ncc1Cl | 3.51
